Where two headings read alike, the source gives them in different places.
How the values were obtained:
hPXR [1] = molecular target: T1, hPXR (Homo sapiens (Human), UniProt O75469); assay: hPXR binding assay; settings: for inhibition at 10 µM: read-out: Binding (% inhibition at 10 μM)
hPXR [2] = molecular target: T1, hPXR; assay: cell-based hPXR agonistic assay; settings: for Agonist (% activation at 10 μM): rifampicin at 10 μM as 100% activation, DMSO (0.3%) as 0%
hPXR [3] = molecular target: T1, hPXR; assay: cell-based hPXR antagonistic assay; settings: for Antagonist (% inhibition at 10 μM): SPA70 at 10 μM with rifampicin (5 μM) as 100% inhibition, rifampicin alone (5 μM) as 0%; for inhibition at 10 µM: read-out: Antagonist (% inhibition at 10 μM)
hPXR [4] = molecular target: T1, hPXR; assay: cell-based hPXR inverse agonistic assay; settings: for inhibition at 10 µM: read-out: Inverse agonist (% inhibition at 10 μM)
[5] = read-out: Binding (IC50/μM), hPXR binding assay
[6] = read-out: Antagonist (IC50/μM), cell-based hPXR antagonistic assay with rifampicin (5 μM)
[7] = read-out: Inverse agonist (IC50/μM), cell-based hPXR inverse agonistic assay

T1 sequence (O75469 whole entry): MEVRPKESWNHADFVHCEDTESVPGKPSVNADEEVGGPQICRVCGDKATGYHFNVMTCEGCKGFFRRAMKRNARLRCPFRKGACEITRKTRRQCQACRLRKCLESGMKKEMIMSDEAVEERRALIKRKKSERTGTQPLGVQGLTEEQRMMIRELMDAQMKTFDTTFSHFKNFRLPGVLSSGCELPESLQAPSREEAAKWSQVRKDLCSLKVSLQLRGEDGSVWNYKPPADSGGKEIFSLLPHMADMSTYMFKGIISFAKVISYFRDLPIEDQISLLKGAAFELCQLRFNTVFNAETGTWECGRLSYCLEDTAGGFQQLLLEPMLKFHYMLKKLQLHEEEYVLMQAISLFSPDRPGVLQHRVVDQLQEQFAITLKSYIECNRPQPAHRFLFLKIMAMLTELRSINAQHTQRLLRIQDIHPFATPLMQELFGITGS

SMILES: COc1ccc(OC)c(-n2nnc(C(=O)Nc3ccc(NC(C)=O)c(C(C)(C)C)c3)c2C)c1 [C1, N-(4-acetamido-3-(tert-butyl)phenyl)-1-(2,5-dimethoxyphenyl)-5-methyl-1H-1,2,3-triazole-4-carboxamide]
- inhibition at 10 µM (hPXR [1]): 65%
- IC50 (hPXR [1]; [5]): 1.81 ± 0.52 µM
- EC50 (hPXR [2]): 1.96 ± 0.19 µM
- Agonist (% activation at 10 μM) (hPXR [2]): (50 ± 14)%
- IC50 (hPXR [3]): > 30 µM
- IC50 (hPXR [4]): > 30 µM

SMILES: COc1ccc(OC)c(-n2nnc(C(=O)Nc3ccc(N)c(C(C)(C)C)c3)c2C)c1 [C2, N-(4-amino-3-(tert-butyl)phenyl)-1-(2,5-dimethoxyphenyl)-5-methyl-1H-1,2,3-triazole-4-carboxamide]
- inhibition at 10 µM (hPXR [1]): 86%
- IC50 (hPXR [1]; [5]): 4.12 ± 1.4 µM
- Agonist (% activation at 10 μM) (hPXR [2]): (33 ± 7)%
- EC50 (hPXR [2]; read-out: Agonist (EC50/μM), cell-based hPXR agonistic assay): 0.28 µM
- IC50 (hPXR [3]): > 30 µM
- IC50 (hPXR [4]): > 30 µM

SMILES: CNc1cc(NC(=O)c2nnn(-c3cc(OC)ccc3OC)c2C)cc(C(C)(C)C)c1 [D2, N-(3-(tert-butyl)-5-(methylamino)phenyl)-1-(2,5-dimethoxyphenyl)-5-methyl-1H-1,2,3-triazole-4-carboxamide]
- IC50 (hPXR [1]; [5]): 0.33 ± 0.11 µM
- EC50 (hPXR [2]): > 30 µM
- Antagonist (% inhibition at 10 μM) (hPXR [3]): (109 ± 6)%
- IC50 (hPXR [3]; [6]): 0.41 ± 0.13 µM
- IC50 (hPXR [4]; [7]): 0.12 µM

SMILES: COc1ccc(OC)c(-n2nnc(C(=O)Nc3cc(N(C)C)cc(C(C)(C)C)c3)c2C)c1 [D3, N-(3-(tert-butyl)-5-(dimethylamino)phenyl)-1-(2,5-dimethoxyphenyl)-5-methyl-1H-1,2,3-triazole-4-carboxamide]
- IC50 (hPXR [1]; [5]): 0.27 ± 0.04 µM
- EC50 (hPXR [2]): > 30 µM
- Antagonist (% inhibition at 10 μM) (hPXR [3]): (110 ± 3)%
- IC50 (hPXR [3]; [6]): 0.34 µM
- IC50 (hPXR [4]; [7]): 0.11 µM

SMILES: CCCCNc1cc(NC(=O)c2nnn(-c3cc(OC)ccc3OC)c2C)cc(C(C)(C)C)c1 [D4, N-(3-(tert-butyl)-5-(butylamino)phenyl)-1-(2,5-dimethoxyphenyl)-5-methyl-1H-1,2,3-triazole-4-carboxamide]
- IC50 (hPXR [1]; [5]): 0.45 ± 0.12 µM
- EC50 (hPXR [2]): > 30 µM
- IC50 (hPXR [3]; [6]): 0.13 µM
- IC50 (hPXR [4]; [7]): 0.039 ± 0.012 µM

SMILES: CCCCN(CCCC)c1cc(NC(=O)c2nnn(-c3cc(OC)ccc3OC)c2C)cc(C(C)(C)C)c1 [D5, N-(3-(tert-butyl)-5-(dibutylamino)phenyl)-1-(2,5-dimethoxyphenyl)-5-methyl-1H-1,2,3-triazole-4-carboxamide]
- IC50 (hPXR [1]; [5]): 0.5 ± 0.12 µM
- EC50 (hPXR [2]): > 30 µM
- Antagonist (% inhibition at 10 μM) (hPXR [3]): (82 ± 17)%
- IC50 (hPXR [3]; [6]): 0.62 ± 0.28 µM
- IC50 (hPXR [4]; [7]): 0.15 µM

SMILES: COc1ccc(OC)c(-n2nnc(C(=O)Nc3cc(NC(=O)CCC(=O)O)cc(C(C)(C)C)c3)c2C)c1 [D6, 4-((3-(tert-butyl)-5-(1-(2,5-dimethoxyphenyl)-5-methyl-1H-1,2,3-triazole-4-carboxamido)phenyl)amino)-4-oxobutanoic acid]
- inhibition at 10 µM (hPXR [1]): 70%
- IC50 (hPXR [1]; [5]): 1.26 µM
- EC50 (hPXR [2]): > 30 µM
- IC50 (hPXR [3]): 22.1 ± 4.86 µM
- inhibition at 10 µM (hPXR [3]): 25%
- IC50 (hPXR [4]): 12.7 ± 4.69 µM
- inhibition at 10 µM (hPXR [4]): 48%

SMILES: COc1ccc(OC)c(-n2nnc(C(=O)Nc3cc(NCC(=O)OC(C)(C)C)cc(C(C)(C)C)c3)c2C)c1 [D8, tert-butyl (3-(tert-butyl)-5-(1-(2,5-dimethoxyphenyl)-5-methyl-1H-1,2,3-triazole-4-carboxamido)phenyl)glycinate]
- inhibition at 10 µM (hPXR [1]): 81%
- IC50 (hPXR [1]; [5]): 0.33 µM
- EC50 (hPXR [2]): > 30 µM
- IC50 (hPXR [3]): 0.46 ± 0.06 µM
- inhibition at 10 µM (hPXR [3]): 104%
- IC50 (hPXR [4]): 0.12 µM
- inhibition at 10 µM (hPXR [4]): 127%

SMILES: COc1ccc(OC)c(-n2nnc(C(=O)Nc3cc(NCC(=O)O)cc(C(C)(C)C)c3)c2C)c1 [D9]
- inhibition at 10 µM (hPXR [1]): 61%
- IC50 (hPXR [1]; [5]): 3.53 ± 0.58 µM
- EC50 (hPXR [2]): > 30 µM
- IC50 (hPXR [3]): 17.3 ± 1.39 µM
- inhibition at 10 µM (hPXR [3]): 65%
- IC50 (hPXR [4]): 1.7 µM
- inhibition at 10 µM (hPXR [4]): 107%

SMILES: COc1ccc(OC)c(-n2nnc(C(=O)Nc3cc(NCCN)cc(C(C)(C)C)c3)c2C)c1 [D10]
- IC50 (hPXR [1]): > 30 µM
- EC50 (hPXR [2]): > 30 µM
- IC50 (hPXR [3]): 11.9 ± 2.27 µM
- inhibition at 10 µM (hPXR [3]): 104%
- IC50 (hPXR [4]): 7.09 ± 1.37 µM
- inhibition at 10 µM (hPXR [4]): 130%

SMILES: COc1ccc(OC)c(-n2nnc(C(=O)Nc3cc(N=C=S)cc(C(C)(C)C)c3)c2C)c1 [D11]
- inhibition at 10 µM (hPXR [1]): 47%
- IC50 (hPXR [1]; [5]): 2.6 ± 0.51 µM
- EC50 (hPXR [2]): > 30 µM
- IC50 (hPXR [3]): 30.2 ± 16.1 µM
- inhibition at 10 µM (hPXR [3]): 26%
- IC50 (hPXR [4]): 2.55 ± 0.64 µM
- inhibition at 10 µM (hPXR [4]): 95%

SMILES: COc1ccc(OC)c(-n2nnc(C(=O)Nc3cc(OC(=O)c4nnn(-c5cc(OC)ccc5OC)c4C)cc(C(C)(C)C)c3)c2C)c1 [D13, 3-(tert-butyl)-5-(1-(2,5-dimethoxyphenyl)-5-methyl-1H-1,2,3-triazole-4-carboxamido)phenyl 1-(2,5-dimethoxyphenyl)-5-methyl-1H-1,2,3-triazole-4-carboxylate]
- IC50 (hPXR [1]): > 30 µM
- EC50 (hPXR [2]): > 30 µM
- IC50 (hPXR [3]): 0.83 ± 0.11 µM
- inhibition at 10 µM (hPXR [3]): 68%
- IC50 (hPXR [4]): 0.15 µM
- inhibition at 10 µM (hPXR [4]): 93%

SMILES: COc1ccc(OC)c(-n2nnc(C(=O)Nc3cc(OCCCCI)cc(C(C)(C)C)c3)c2C)c1 [D17, N-(3-(tert-butyl)-5-(4-iodobutoxy)phenyl)-1-(2,5-dimethoxyphenyl)-5-methyl-1H-1,2,3-triazole-4-carboxamide]
- inhibition at 10 µM (hPXR [1]): 50%
- IC50 (hPXR [1]; [5]): 0.18 µM
- EC50 (hPXR [2]): > 30 µM
- IC50 (hPXR [3]): 0.066 ± 0.007 µM
- inhibition at 10 µM (hPXR [3]): 112%
- IC50 (hPXR [4]): 0.0088 ± 0.003 µM
- inhibition at 10 µM (hPXR [4]): 120%
